Key:
Dipeptidyl peptidase 4 = Dipeptidyl peptidase 4 (Homo sapiens, UniProt P27487); experiment: Inhibitory concentration against Dipeptidyl peptidase IV
Dipeptidyl peptidase 2 = Dipeptidyl peptidase 2 (Homo sapiens, UniProt Q9UHL4); experiment: Inhibitory concentration against quiescent cell proline dipeptidase
[1] = Plasma clearance in rat at 2 mpk po; format: ADME, organism-based; settings: 2 mg/kg, read-out: Clearance
[2] = Bioavailability in rat (dose 1 mg/kg i.v.); format: ADME, organism-based; settings: in vivo, iv
[3] = Bioavailability in rat (dose 2 mg/kg p.o.); format: ADME, organism-based; settings: in vivo, po
[4] = Plasma clearance in rat at 1 mpk iv; format: ADME, organism-based; settings: 1 mg/kg
[5] = Half life in rat at 2 mpk po; format: ADME, organism-based; settings: in vivo, 2 mg/kg
[6] = Half life in rat at 1 mpk iv; format: ADME, organism-based; settings: in vivo, 1 mg/kg

Sequence of Dipeptidyl peptidase 4 (P27487 whole entry): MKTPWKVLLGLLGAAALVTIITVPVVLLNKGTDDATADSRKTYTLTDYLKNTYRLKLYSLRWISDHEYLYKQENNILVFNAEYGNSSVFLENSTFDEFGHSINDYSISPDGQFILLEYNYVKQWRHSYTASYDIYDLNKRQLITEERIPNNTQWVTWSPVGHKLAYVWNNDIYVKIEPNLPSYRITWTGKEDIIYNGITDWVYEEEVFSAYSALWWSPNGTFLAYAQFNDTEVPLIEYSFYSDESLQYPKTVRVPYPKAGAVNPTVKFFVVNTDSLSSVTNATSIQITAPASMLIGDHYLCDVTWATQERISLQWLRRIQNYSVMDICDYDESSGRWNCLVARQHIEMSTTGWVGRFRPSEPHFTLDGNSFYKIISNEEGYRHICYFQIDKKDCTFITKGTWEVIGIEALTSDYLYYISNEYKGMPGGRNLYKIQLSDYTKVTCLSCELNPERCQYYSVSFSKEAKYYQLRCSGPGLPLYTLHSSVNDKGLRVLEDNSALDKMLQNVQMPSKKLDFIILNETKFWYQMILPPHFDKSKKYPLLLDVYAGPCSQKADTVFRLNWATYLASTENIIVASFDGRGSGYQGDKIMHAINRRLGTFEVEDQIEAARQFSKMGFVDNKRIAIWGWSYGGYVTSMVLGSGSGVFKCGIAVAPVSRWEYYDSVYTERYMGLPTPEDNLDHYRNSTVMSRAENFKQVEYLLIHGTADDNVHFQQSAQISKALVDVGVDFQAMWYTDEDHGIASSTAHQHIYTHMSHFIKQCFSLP

SMILES	IC50 (Dipeptidyl peptidase 4)	IC50 (Dipeptidyl peptidase 2)	other results
N[C@@H](CC(=O)N1CCSC1)Cc1ccoc1	46.9 µM		
N[C@@H](CC(=O)N1CCSC1)CC1CCCC1	27.5 µM		
N[C@@H](CC(=O)N1CCSC1)Cc1cccc(F)c1	2.03 µM	48.5 µM	
N[C@@H](CC(=O)N1CCSC1)Cc1ccsc1	5.7 µM		
N[C@@H](CC(=O)N1CCSC1)Cc1ccncc1	51 µM		
N[C@@H](CC(=O)N1CCSC1)Cc1ccc(C(F)(F)F)cc1	7.69 µM		
N[C@@H](CC(=O)N1CCSC1)Cc1ccccc1		> 100 µM	
N[C@@H](CC(=O)N1CCSC1)Cc1ccc(Cl)cc1	3.03 µM	36.2 µM	
N[C@@H](CC(=O)N1CCSC1)Cc1ccc(F)cc1F	0.589 µM	56.1 µM	
N[C@@H](CC(=O)N1CCSC1)Cc1ccc(Cl)c(Cl)c1	2.03 µM	48.5 µM	
N[C@@H](CC(=O)N1CCSC1)Cc1ccc([N+](=O)[O-])cc1	1.55 µM	24.3 µM	
N[C@@H](CC(=O)N1CCSC1)Cc1cccc(F)c1F	9.4 µM		
N[C@@H](CC(=O)N1CCSC1)Cc1ccc(F)c(F)c1	1.7 µM	33.9 µM	
N[C@@H](CC(=O)N1CCSC1)Cc1ccccn1	39.6 µM		
N#Cc1ccccc1C[C@@H](N)CC(=O)N1CCSC1	2.52 µM	> 100 µM	
N[C@@H](CC(=O)N1CCSC1)Cc1cccnc1	44.9 µM		

SMILES	IC50 (Dipeptidyl peptidase 4)	IC50 (Dipeptidyl peptidase 2)	other results
Cc1ccccc1C[C@@H](N)CC(=O)N1CCSC1	0.981 µM	92.1 µM	
N[C@@H](CC(=O)N1CCSC1)Cc1cccc(C(F)(F)F)c1	3.61 µM	24.6 µM	
N[C@@H](CC(=O)N1CCSC1)Cc1ccccc1C(F)(F)F	2.26 µM	82.1 µM	
COc1cc(OC)cc(-c2nc(-c3ccc(Cl)cc3Cl)c(CN(C)C)c(N(C)C)n2)c1	0.0001 µM		
N[C@@H](CC(=O)N1CCSC1)Cc1ccccc1F	0.931 µM	49.7 µM	
N[C@@H](CC(=O)N1CCSC1)Cc1c(F)cccc1F	8.48 µM		
N[C@@H](CC(=O)N1CCSC1)CC1CCCCC1	33 µM		
N[C@H](CCc1ccccc1)CC(=O)N1CCSC1	16.5 µM		
N[C@@H](CC(=O)N1CCSC1)Cc1cc(F)c(F)cc1F			CL/F [1]: 120 mL/min/kg; bioavailability [2]: 3%; bioavailability [3]: 3%; clearance [4]: 120 mL/min/kg; half-life [5]: 66 min; half-life [6]: 66 min
N[C@@H](CC(=O)N1CCSC1)Cc1ccc(F)cc1	3.28 µM	67.6 µM	
N[C@@H](CC(=O)N1CCSC1)c1ccccc1	> 100 µM		
N#Cc1ccc(C[C@@H](N)CC(=O)N2CCSC2)cc1	14.9 µM		
N[C@@H](CC(=O)N1CCSC1)Cc1ccc(I)cc1	10.7 µM	5.78 µM	
N#Cc1cccc(C[C@@H](N)CC(=O)N2CCSC2)c1	8.95 µM	29.8 µM	
N[C@@H](CC(=O)N1CCSC1)Cc1cc(F)ccc1F	0.27 µM	77.6 µM	CL/F [1]: 110 mL/min/kg; bioavailability [2]: 2%; bioavailability [3]: 2%; clearance [4]: 110 mL/min/kg; half-life [5]: 30 min; half-life [6]: 30 min
